Experimental data as given in patent publication US6949542B2, “Dihydro-benzo[b][1,4]diazepin-2-one derivatives” (Hoffman-La Roche Inc., priority 2002, dated 2005).

melting point	Compound
200 °C	CC(C)c1cc(-c2cccc(C3=Nc4cc(Cl)c(C(F)(F)F)cc4NC(=O)C3)c2)ccn1 [Example 273, 7-Chloro-4-[3-(2-isopropyl-pyridin-4-yl)-phenyl]-8-trifluoromethyl-1,3-dihydro benzo[b][1,4]diazepin-2-one]
215 °C	Cc1cc(-c2cccc(C3=Nc4cc(N(C)CC(C)C)c(C(F)(F)F)cc4NC(=O)C3)c2)cc(C)n1 [Example 408, 4-[3-(2,6-Dimethyl-pyridin-4-yl)-phenyl]-7-(isobutyl-methyl-amino)-8-trifluoromethyl-1,3-dihydro-benzo[b][1,4]diazepin-2-one]
168 °C	CC(C)c1cc(-c2cccc(C3=Nc4ccc(C(F)(F)F)cc4NC(=O)C3)c2)ccn1 [Example 272, 4-[3-(2-Isopropyl-pyridin-4-yl)-phenyl]-8-trifluoromethyl-1,3-dihydro benzo[b][1,4]diazepin-2-one]
198 to 200 °C	Cc1ccncc1-c1cccc(C2=Nc3cc(OCC(F)(F)F)c(C(F)(F)F)cc3NC(=O)C2)c1 [Example 232, 4-[3-(4-Methyl-pyridin-3-yl)-phenyl]-7-(2,2,2-trifluoro-ethoxy)-8-trifluoromethyl-1,3-dihydro-benzo[b][1,4]diazepin-2-one]
192 °C	CCCN(C)c1cc2c(cc1C(F)(F)F)NC(=O)CC(c1cccc(-c3ccncc3)c1)=N2 [Example 81, 7-(Methyl-propyl-amino)-4-(3-pyridin-4-yl-phenyl)-8-trifluoromethyl-1,3-dihydro-benzo[b][1,4]diazepin-2-one]
211 °C	Cc1cc(-c2cccc(C3=Nc4cc(C)c(C(F)(F)F)cc4NC(=O)C3)c2)c(C)cn1 [Example 135, 4-[3-(2,5-Dimethyl-pyridin-4-yl)-phenyl]-7-methyl-8-trifluoromethyl-1,3-dihydro benzo[b][1,4]diazepin-2-one]
223 °C	CN(C)c1cc2c(cc1C(F)(F)F)NC(=O)CC(c1cccc(-c3ccnc(CO)c3)c1)=N2 [Example 371, 7-Dimethylamino-4-[3-(2-hydroxymethyl-pyridin-4-yl)-phenyl]-8-trifluoromethyl-1,3-dihydro-benzo[b][1,4]diazepin-2-one]
199 to 200 °C	Cc1cc(-c2cccc(C3=Nc4ccc(Cl)cc4NC(=O)C3)c2)ncn1 [Example 312, 8-Chloro-4-[3-(6-methyl-pyrimidin-4-yl)-phenyl]-1,3-dihydro-benzo[b][1,4]diazepin-2-one]
225 °C	COCc1cc(-c2cccc(C3=Nc4cc(C)c(C(F)(F)F)cc4NC(=O)C3)c2)ccn1 [Example 361, 4-[3-(2-Methoxymethyl-pyridin-4-yl)-phenyl]-7-methyl-8-trifluoromethyl-1,3-dihydro-benzo[b][1,4]diazepin-2-one]
223 °C	O=C1CC(c2cccc(-c3cnccn3)c2)=Nc2ccc(C(F)(F)F)cc2N1 [Example 89, 4-(3-Pyrazin-2-yl-phenyl)-8-trifluoromethyl-1,3-dihydro-benzo[b][1,4]diazepin-2-one]
214 °C	CCOc1cc2c(cc1C(F)(F)F)NC(=O)CC(c1cccc(-c3cccnc3CC)c1)=N2 [Example 235, 7-Ethoxy-4-[3-(2-ethyl-pyridin-3-yl)-phenyl]-8-trifluoromethyl-1,3-dihydro-benzo[b][1,4]diazepin-2-one]
254 °C	Cc1cncc(-c2cccc(C3=Nc4cc(Cl)c(C)cc4NC(=O)C3)c2)n1 [Example 132, 7-Chloro-8-methyl-4-[3-(6-methyl-pyrazin-2-yl)-phenyl]-1,3-dihydro-benzo[b][1,4]diazepin-2-one]
183 °C	CCc1cnc(C)cc1-c1cccc(C2=Nc3ccc(C(F)(F)F)cc3NC(=O)C2)c1 [Example 149, 4-[3-(5-Ethyl-2-methyl-pyridin-4-yl)-phenyl]-8-trifluoromethyl-1,3-dihydro benzo[b][1,4]diazepin-2-one]
159 °C	Cc1ccc(-c2cccc(C3=Nc4cc(OCC(F)(F)F)c(C(F)(F)F)cc4NC(=O)C3)c2)cn1 [Example 239, 4-[3-(6-Methyl-pyridin-3-yl)-phenyl]-7-(2,2,2-trifluoro-ethoxy)-8-trifluoromethyl-1,3-dihydro-benzo[b][1,4]diazepin-2-one]
220 to 221 °C	Cc1cc2c(cc1C(F)(F)F)NC(=O)CC(c1cccc(-c3ccc(C4CC4)nc3)c1)=N2 [Example 167, 4-[3-(6-Cyclopropyl-pyridin-3-yl)-phenyl]-7-methyl-8-trifluoromethyl-1,3-dihydro-benzo[b][1,4]diazepin-2-one]
252 °C	Cc1cc(-c2cccc(C3=Nc4cc(F)c(F)cc4NC(=O)C3)c2)cc(C)n1 [Example 126, 7,8-Difluoro-4-[3-(2,6-dimethyl-pyridin-4-yl)-phenyl]-1,3-dihydro-benzo[b][1,4]diazepin-2-one]
195 °C	CC(C)c1cc(-c2cccc(C3=Nc4cc(Cl)c(Cl)cc4NC(=O)C3)c2)ccn1 [Example 274, 7,8-Dichloro-4-[3-(2-isopropyl-pyridin-4-yl)-phenyl]-1,3-dihydro-benzo[b][1,4]diazepin-2-one]

melting point	Compound
216 °C	CCCc1cc2c(cc1C(F)(F)F)NC(=O)CC(c1cccc(-c3cc(C)nc(C)c3)c1)=N2 [Example 229, 4-[3-(2,6-Dimethyl-pyridin-4-yl)-phenyl]-7-propyl-8-trifluoromethyl-1,3-dihydro-benzo[b][1,4]diazepin-2-one]
216 °C	CCc1cc(-c2cccc(C3=Nc4cc(Cl)c(Cl)cc4NC(=O)C3)c2)ccn1 [Example 157, 7,8-Dichloro-4-[3-(2-ethyl-pyridin-4-yl)-phenyl]-1,3-dihydro-benzo[b][1,4]diazepin-2-one]
186 °C	COc1ccc(-c2cccc(C3=Nc4cc(OCC(F)(F)F)ccc4NC(=O)C3)c2)cn1 [Example 169, 4-[3-(6-Methoxy-pyridin-3-yl)-phenyl]-7-(2,2,2-trifluoro-ethoxy)-1,3-dihydro-benzo[b][1,4]diazepin-2-one]
189 °C	CCOc1cc2c(cc1C(F)(F)F)NC(=O)CC(c1cccc(-c3cc(C)ncc3C)c1)=N2 [Example 139, 4-[3-(2,5-Dimethyl-pyridin-4-yl)-phenyl]-7-ethoxy-8-trifluoromethyl-1,3-dihydro-benzo[b][1,4]diazepin-2-one]
197 °C	O=C1CC(c2cccc(-c3cccnc3)c2)=Nc2cc(OCC3CC3)c(C(F)(F)F)cc2N1 [Example 194, 7-Cyclopropylmethoxy-4-(3-pyridin-3-yl-phenyl)-8-trifluoromethyl-1,3-dihydro-benzo[b][1,4]diazepin-2-one]
219 °C (dec.)	COc1ccc2c(c1)N=C(c1cccc(-c3cccnc3)c1)CC(=O)N2 [Example 55, 7-Methoxy-4-(3-pyridin-3-yl-phenyl)-1,3-dihydro-benzo[b][1,4]diazepin-2-one]
198 °C	Cc1ncccc1-c1cccc(C2=Nc3ccc(Cl)cc3NC(=O)C2)c1 [Example 32, 8-Chloro-4-[3-(2-methyl-pyridin-3-yl)-phenyl]-1,3-dihydro-benzo[b][1,4]diazepin-2-one]
217 °C	CCOc1cc2c(cc1C(F)(F)F)NC(=O)CC(c1cccc(-c3ccnc(C(C)C)c3)c1)=N2 [Example 276, 4-[3-(2-Isopropyl-pyridin-4-yl)-phenyl]-7-ethoxy-8-trifluoromethyl-1,3-dihydro-benzo[b][1,4]diazepin-2-one]
195 °C	CCc1cc(-c2cccc(C3=Nc4cc(C)c(Cl)cc4NC(=O)C3)c2)ccn1 [Example 153, 8-Chloro-4-[3-(2-ethyl-pyridin-4-yl)-phenyl]-7-methyl-1,3-dihydro-benzo[b][1,4]diazepin-2-one]
190 to 192 °C	O=C1CC(c2cccc(-c3ccncc3)c2)=Nc2ccc(F)cc2N1 [Example 8, 8-Fluoro-4-(3-pyridin-4-yl-phenyl)-1,3-dihydro-benzo[b][1,4]diazepin-2-one]
210 °C	CCOc1cc2c(cc1Cl)NC(=O)CC(c1cccc(-c3cccnc3)c1)=N2 [Example 181, 8-Chloro-7-ethoxy-4-(3-pyridin-3-yl-phenyl)-1,3-dihydro-benzo[b][1,4]diazepin-2-one]
239 to 242 °C	Cc1cc2c(cc1C(F)(F)F)NC(=O)CC(c1cccc(-c3cc(N(C)C)ncn3)c1)=N2 [Example 332, 4-[3-(6-Dimethylamino-pyrimidin-4-yl)-phenyl]-7-methyl-8-trifluoromethyl-1,3-dihydro-benzo[b][1,4]diazepin-2-one]
184 °C	CCc1ncccc1-c1cccc(C2=Nc3cc(OCC(F)(F)F)c(C(F)(F)F)cc3NC(=O)C2)c1 [Example 236, 4-[3-(2-Ethyl-pyridin-3-yl)-phenyl]-7-(2,2,2-trifluoro-ethoxy)-8-trifluoromethyl-1,3-dihydro-benzo[b][1,4]diazepin-2-one]
150 °C	O=C1CC(c2cccc(-c3ccnc(CNC4CC4)c3)c2)=Nc2cc(OCC(F)(F)F)c(C(F)(F)F)cc2N1 [Example 379, 4-[3-(2-Cyclopropylaminomethyl-pyridin-4-yl)-phenyl]-7-(2,2,2-trifluoro-ethoxy)-8-trifluoromethyl-1,3-dihydro-benzo[b][1,4]diazepin-2-one]
207 °C	Cc1cc(-c2cccc(C3=Nc4cc(N(C)C(C)C)c(C(F)(F)F)cc4NC(=O)C3)c2)ccn1 [Example 363, 7-(Isopropyl-methyl-amino)-4-[3-(2-methyl-pyridin-4-yl)-phenyl]-8-trifluoromethyl-1,3-dihydro-benzo[b][1,4]diazepin-2-one]
191 °C	CCc1ccc(-c2cccc(C3=Nc4cc(OCC(F)(F)F)c(C(F)(F)F)cc4NC(=O)C3)c2)cn1 [Example 193, 4-[3-(6-Ethyl-pyridin-3-yl)-phenyl]-7-(2,2,2-trifluoro-ethoxy)-8-trifluoromethyl-1,3-dihydro-benzo[b][1,4]diazepin-2-one]
209 °C	Cc1cc2c(cc1C(F)(F)F)NC(=O)CC(c1cccc(-c3ccnc(CC(C)C)c3)c1)=N2 [Example 262, 4-[3-(2-Isobutyl-pyridin-4-yl)-phenyl]-7-methyl-8-trifluoromethyl-1,3-dihydro benzo[b][1,4]diazepin-2-one]
